Results from US20210121419A1, “METFORMIN COMPOUNDED COMPOSITION AND METHOD THEREOF” (ZHOUSHAN TRITECH BIOSCIENCES, INC., priority 2018, published 2021).

Test system: enteric microorganism
Test: Low dose metformin usage in a large population
Format: in vivo, human
Conditions: low dose 0.125-0.25 g/day
Source text: One of the new discoveries of the present disclosure is the important health effect of low dose metformin. The normal dosage of metformin in Chinese population is 1-2 g per day, and the dose for the anti-aging clinical trial in the US is 1.7 g per day. It is known that one of the functions of metformin in regulating human health is through regulating enteric microorganism, whereas an unexpected discovery of the present disclosure is that low dose metformin (0.1-0.5 g/day, prefer for 0.125-0.25 g/day) can also promote health through regulating enteric microorganism. The application of low dose metformin can avoid long-term application caused side effects such as hypoglycemia, lactic acidosis, and hepatic and renal toxicity when normal dosage is used.

time until stool returned to normal: 4 to 5 days
stool effect (2-3 days after usage): mild diarrhea
SMILES: CN(C)C(=N)N=C(N)N [metformin, 1,1-Dimethylbiguanide]
